The values that follow come from US7749984B2, “Computer-based model for identification and characterization of non-competitive inhibitors of nicotinic acetylcholine receptors and related ligand-gated ion channel receptors” (priority 2003, dated 2010).

Experiment [1] deals with T1, α3β4 nAChR (Rattus norvegicus, UniProt P04757+P12392). Briefly: biochemical. Format: binding. Further details: host or cells: HEK293 (KXα3β4R2). The settings on record: for k′(NLC) retention capacity factor: 10 μM, 20 μl injected, ammonium acetate 10 mM pH 7.4/methanol 85:15.
The target in experiment [2] is T1, α3β4 nAChR. Briefly: Nicotine-stimulated 86Rb+ efflux assay, KXα3β4R2 cell line. Format: cell-based. Set-up: host or cells: HEK293 (KXα3β4R2). As for the experimental part:
After the prediction has been done based on clustering the actual values of IC50 were determined using the nicotine-stimulated ^86Rb^+ efflux assay on cell line KXα3β4R2.

Another experiment deals with nAChR, SH-SY5Y cells. As to the kind of experiment: Rb+ efflux assay, SH-SY5Y cells. The experiment is classed as cell-based, human. Particulars: cell line SH-SY5Y.
The mark [3] stands for this setting: α3β4 nAChR, NLC, read-out: koff dissociation constant rate.
[4] abbreviates: α3β4 nAChR, NLC, read-out: kon association constant rate.
Where [5] appears, read: α3β4 nAChR, NLC, read-out: log K chromatographic equilibrium constant (converted).
[6] abbreviates: nicotine-stimulated 86Rb+ efflux, cell line KXα3β4R2, read-out: IC50.
[7] abbreviates: IC50 of Rb+ efflux, cell line KXα3β4R2.

Where two headings read alike, the source gives them in different places.

T1 sequence (P04757 26-499): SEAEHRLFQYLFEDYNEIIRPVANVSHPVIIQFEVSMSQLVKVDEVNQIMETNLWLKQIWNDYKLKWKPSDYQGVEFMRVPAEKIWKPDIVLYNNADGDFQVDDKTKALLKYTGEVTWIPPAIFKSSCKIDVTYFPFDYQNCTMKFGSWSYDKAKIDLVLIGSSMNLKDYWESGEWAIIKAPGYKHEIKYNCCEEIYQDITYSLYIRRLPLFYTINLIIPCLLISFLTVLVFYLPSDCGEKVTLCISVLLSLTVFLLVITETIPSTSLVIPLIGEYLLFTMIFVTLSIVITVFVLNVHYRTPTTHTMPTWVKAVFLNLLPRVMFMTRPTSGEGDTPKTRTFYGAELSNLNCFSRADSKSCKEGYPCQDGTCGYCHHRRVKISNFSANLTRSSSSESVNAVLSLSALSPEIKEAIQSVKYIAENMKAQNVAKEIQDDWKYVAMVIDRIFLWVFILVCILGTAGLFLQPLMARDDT
T1 sequence (P12392 21-495): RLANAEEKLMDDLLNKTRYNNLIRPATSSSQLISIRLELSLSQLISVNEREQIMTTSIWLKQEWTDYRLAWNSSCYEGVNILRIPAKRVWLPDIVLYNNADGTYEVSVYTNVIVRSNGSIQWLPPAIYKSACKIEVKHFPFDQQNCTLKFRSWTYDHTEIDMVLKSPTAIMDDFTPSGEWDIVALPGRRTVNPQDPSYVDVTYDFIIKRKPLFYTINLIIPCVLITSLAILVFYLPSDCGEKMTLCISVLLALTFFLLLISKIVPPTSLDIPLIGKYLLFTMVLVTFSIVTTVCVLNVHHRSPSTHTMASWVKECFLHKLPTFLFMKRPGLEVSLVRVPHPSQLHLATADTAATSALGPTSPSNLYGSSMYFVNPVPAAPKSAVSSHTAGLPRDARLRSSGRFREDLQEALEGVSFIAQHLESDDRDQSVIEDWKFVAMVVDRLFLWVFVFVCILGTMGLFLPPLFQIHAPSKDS

For `CC(=O)Nc1ccccc1` [acetanilide], at α3β4 nAChR [1] (setting [3]), the koff turned out to be 25.5 s⁻¹. For the same compound, the kon at α3β4 nAChR [1] (setting [4]) worked out at 8.2e+06 M⁻¹ s⁻¹. The Kd on α3β4 nAChR [1] (setting [5]) is 3.09 µM. For the same compound, the “k′(NLC) retention capacity factor” value on α3β4 nAChR [1] (α3β4 nAChR) is 5.95.
For `CNCCCC(C#N)(c1ccc(OC)c(OC)c1)C(C)C` [Compound D-617], on α3β4 nAChR [1] (α3β4 nAChR, NLC), the “koff dissociation constant rate” value turned out to be 2.72 s⁻¹ and the “log K chromatographic equilibrium constant” value was determined as 6.74 M^−1. The “k′(NLC) retention capacity factor” value on α3β4 nAChR [1] (α3β4 nAChR) is given as 22.22.
For `COc1ccc(CC2c3cc(OC)c(OC)cc3CCN2C)cc1OC` (stereo not drawn) [laudanosine], at α3β4 nAChR [1] (setting [3]), the off-rate constant (koff) was determined as 2.18 s⁻¹. The kon at α3β4 nAChR [1] (setting [4]) was 2.5e+07 M⁻¹ s⁻¹. At α3β4 nAChR [1] (setting [5]), the Kd was 0.0871 µM. For the same compound, at α3β4 nAChR [1] (α3β4 nAChR), the “k′(NLC) retention capacity factor” value came to 22.87.
For `COc1ccc(C(=O)O)cc1OC` [dimethoxybenzoic ac., 3,4-dimethoxybenzoic acid] the same measures were 18.2 s⁻¹, 9.8e+06 M⁻¹ s⁻¹, 1.86 µM and 4.46.
On to `CN[C@@H](C)Cc1ccccc1` [methamphetamine], for which the koff on α3β4 nAChR [1] (setting [3]) worked out at 6.81 s⁻¹. Also, the kon on α3β4 nAChR [1] (setting [4]) came to 2.91e+07 M⁻¹ s⁻¹. The Kd on α3β4 nAChR [1] (setting [5]) is 0.234 µM. Also, the “k′(NLC) retention capacity factor” value on α3β4 nAChR [1] (α3β4 nAChR) stood at 8.38.
For the compound `COc1ccc(CCN(C)CCCC(C#N)(c2cc(OC)c(OC)c(OC)c2)C(C)C)cc1OC` (stereo not drawn) [galapamil], on α3β4 nAChR [1] (α3β4 nAChR), the “logk′” value is 1.88 and the “k′(NLC) retention capacity factor” value is 75.93. In addition, at α3β4 nAChR [1] (α3β4 nAChR, NLC), the “koff dissociation constant rate” value came out at 0.74 s⁻¹ and the “log K chromatographic equilibrium constant” value stood at 7.43 M^−1. Moreover, the IC50 at α3β4 nAChR [2] (setting [6]) came to 6.4 µM.
`CN(C)CCN1C(=O)[C@H](O)[C@H](c2ccc(O)cc2)Sc2ccccc21` [Compound M4]: the “logk′” value at α3β4 nAChR [1] (α3β4 nAChR) worked out at 1.45. Also, the half-inhibitory concentration (IC50) on α3β4 nAChR [2] (setting [6]) worked out at 73.2 µM.
For `COc1ccc(CCNCCCC(C#N)(c2ccc(OC)c(OC)c2)C(C)C)cc1OC` (stereo not drawn) [nor-verapamil], at α3β4 nAChR [1] (chromatographic experiments and NLC data), the “enantioselectivity of binding towards nicotinic affinity column” value is given as “did not exhibit noticeable differences between enantiomers”. For the same compound, at α3β4 nAChR [1] (α3β4 nAChR), the “logk′” value is 1.99. Besides, the concentration for half-maximal inhibition (IC50) at α3β4 nAChR [2] (IC50, nicotine-stimulated 86Rb+ efflux, cell line KXα3β4R2) was found to be 2.6 µM; on α3β4 nAChR [2] (IC50, nicotine-stimulated 86Rb+ efflux, α3β4 nAChR) it was 2.1 µM; at α3β4 nAChR [2] (setting [7]) it was 2.6 µM.
For the compound `NC12CC3CC(CC(C3)C1)C2` [amantadine], the off-rate constant (koff) on α3β4 nAChR [1] (setting [3]) was 6.73 s⁻¹. The kon on α3β4 nAChR [1] (setting [4]) turned out to be 3.08e+07 M⁻¹ s⁻¹. In addition, on α3β4 nAChR [1] (setting [5]), the Kd is 0.219 µM. For the same compound, at α3β4 nAChR [1] (α3β4 nAChR), the “k′(NLC) retention capacity factor” value is on record as 8.98.
Regarding `C[C@]12N[C@H](Cc3ccccc31)c1ccccc12` [MK-801], on α3β4 nAChR [1] (setting [3]), the dissociation rate constant (koff) stood at 3.48 s⁻¹. For the same compound, the kon at α3β4 nAChR [1] (setting [4]) was determined as 2.71e+07 M⁻¹ s⁻¹. Further, the Kd on α3β4 nAChR [1] (setting [5]) was 0.129 µM. Further, the “k′(NLC) retention capacity factor” value on α3β4 nAChR [1] (α3β4 nAChR) came out at 19.10.
In the experiment with nAChR, SH-SY5Y cells, `CC(NC(C)(C)C)C(=O)c1cccc(Cl)c1` (stereo not drawn) [bupropion] returned an IC50 of 1.4 µM. Further, the koff on α3β4 nAChR [1] (setting [3]) amounted to 5.14 s⁻¹. Further, the on-rate (kon) on α3β4 nAChR [1] (setting [4]) turned out to be 2.87e+07 M⁻¹ s⁻¹. In addition, the Kd at α3β4 nAChR [1] (setting [5]) is 0.178 µM. Further, on α3β4 nAChR [1] (α3β4 nAChR), the “k′(NLC) retention capacity factor” value was found to be 12.97.
With `COc1ccc2c(c1)[C@@]13CCCC[C@H]1[C@@H](C2)N(C)CC3` [levomethorphan], at α3β4 nAChR [1] (chromatographic (NLC and van't Hoff)), the “K′” value is recorded as 35.81 (±0.15). Besides, the Ka on α3β4 nAChR [1] (chromatographic (NLC)) is recorded as 12.01 (±0.23) μM^−1. Further, the koff worked out at 1.55 s⁻¹ at α3β4 nAChR [1] (chromatographic (NLC), read-out: Koff) and 1.55 s⁻¹ on α3β4 nAChR [1] (setting [3]). The kon was 1.86e+07 M⁻¹ s⁻¹ at α3β4 nAChR [1] (chromatographic (NLC), read-out: Kon) and 1.86e+07 M⁻¹ s⁻¹ on α3β4 nAChR [1] (setting [4]). Also, the Kd at α3β4 nAChR [1] (chromatographic (NLC), read-out: logKa (converted)) was 0.0832 µM; at α3β4 nAChR [1] (setting [5]) it was 0.0832 µM. Moreover, the “ΔG°” value at α3β4 nAChR [1] (chromatographic (van't Hoff)) is −2.04 (±0.4) kcal mol^−1. The “ΔH°” value on α3β4 nAChR [1] (chromatographic (van't Hoff)) is recorded as −6.59 (±0.18) kcal mol^−1. Besides, the “ΔS°” value on α3β4 nAChR [1] (chromatographic (van't Hoff)) is −15.20 (0.6) cal mol^−1T^−1. The “k′(NLC) retention capacity factor” value on α3β4 nAChR [1] (α3β4 nAChR) came to 35.81. The IC50 against α3β4 nAChR [2] (IC50, nicotine stimulated Rb+ efflux) stood at 10.9 µM; against α3β4 nAChR [2] (setting [7]), 10.9 µM.
Consider `CCC(=O)C(CC(C)N(C)C)(c1ccccc1)c1ccccc1` (stereo not drawn) [methadone], for which the koff on α3β4 nAChR [1] (setting [3]) came to 1.37 s⁻¹. The kon on α3β4 nAChR [1] (setting [4]) was found to be 1.59e+07 M⁻¹ s⁻¹. The Kd on α3β4 nAChR [1] (setting [5]) is 0.0871 µM. The “k′(NLC) retention capacity factor” value at α3β4 nAChR [1] (α3β4 nAChR) came to 44.45. The same compound yielded an IC50 against α3β4 nAChR [2] (setting [7]) of 1.9 µM.
As for `COc1ccc(CCNCCCC(C#N)(c2ccc(OC)c(OC)c2)C(C)C)cc1OC` (single isomer, unassigned) [nor-verapamil-S, nor-verapamil], the “koff dissociation constant rate” value on α3β4 nAChR [1] (α3β4 nAChR, NLC) was found to be 0.61 s⁻¹. Also, the Kd at α3β4 nAChR [1] (setting [5]) is 0.0398 µM. In addition, the “k′(NLC) retention capacity factor” value on α3β4 nAChR [1] (α3β4 nAChR) amounted to 97.86.
For the compound `O=C(O)c1ccc([N+](=O)[O-])cc1[N+](=O)[O-]` [dinitrobenzoic acid, 2,4-dinitrobenzoic acid], on α3β4 nAChR [1] (log K chromatographic equilibrium constant, α3β4 nAChR, NLC), the Kd was 1.35 µM. Also, the “koff dissociation constant rate” value on α3β4 nAChR [1] (α3β4 nAChR, NLC) was 12.12 s⁻¹. Moreover, the “k′(NLC) retention capacity factor” value at α3β4 nAChR [1] (α3β4 nAChR) is 7.77.
